In patent publication US10716859B2, “Excipients for stabilising viral particles, polypeptides or biological material” (priority 2010, dated 2020):

Legend:
[1] = system: Recombinant adenovirus expressing enhanced GFP; assay: Recovered adenoviral activity after 7 days at 4° C. or 37° C. with glycinergics or SMM (Example 4); assay type: cell-based; settings: one week at 37° C.
white cell fraction = assay: White cell viability in human blood diluted with excipients, Guava Viacount (Example 18); assay type: cell-based; settings: equal volume dilution, 25° C. for 30 minutes
[2] = 0.07 M, sole excipient (no sugars)
[3] = 0.07 M, with sugars (1M Sucrose, 100 mM Raffinose)
[4] = 0.70 M, sole excipient (no sugars)
[5] = 0.70 M, with sugars (1M Sucrose, 100 mM Raffinose)

Compound: CN(C)CC(=O)O [DMG, N,N-Dimethylglycine]
- recovered viral activity [1, 2]: 27%
- recovered viral activity [1, 3]: 37%
- recovered viral activity [1, 4]: 41%
- recovered viral activity [1, 5]: 52%
- effect on white cell viability in the blood sample (white cell fraction): no adverse effects

Compound: C[S+](C)CC[C@H](N)C(=O)O [SMM, S-methyl-L-methionine]
- recovered viral activity [1, 2]: 33%
- recovered viral activity ([1]; 0.23 M, sole excipient (no sugars)): 43%

Compound: C[N+](C)(C)CC(=O)O [TMG, N,N,N-trimethylglycine]
- recovered viral activity [1, 2]: 21%
- recovered viral activity [1, 3]: 45%
- recovered viral activity [1, 4]: 45%
- recovered viral activity [1, 5]: 38.7%

Compound: NCC(=O)O [glycine, Glycine, reference compound]
- recovered viral activity [1, 2]: 29%
- recovered viral activity [1, 3]: 41%
- recovered viral activity [1, 4]: 45%
- recovered viral activity [1, 5]: 54%

Compound: CNCC(=O)O [sarcosine, N-Methyl-glycine]
- recovered viral activity [1, 2]: 29%
- recovered viral activity [1, 3]: 37%
- recovered viral activity [1, 4]: 49%
- recovered viral activity [1, 5]: 56%
